Experiment [1] concerns the target T1, recombinant human arginase 1 (Homo sapiens, UniProt P05089).
T1 construct: made in house; host or cells: E. coli
T1 sequence (P05089 1-322): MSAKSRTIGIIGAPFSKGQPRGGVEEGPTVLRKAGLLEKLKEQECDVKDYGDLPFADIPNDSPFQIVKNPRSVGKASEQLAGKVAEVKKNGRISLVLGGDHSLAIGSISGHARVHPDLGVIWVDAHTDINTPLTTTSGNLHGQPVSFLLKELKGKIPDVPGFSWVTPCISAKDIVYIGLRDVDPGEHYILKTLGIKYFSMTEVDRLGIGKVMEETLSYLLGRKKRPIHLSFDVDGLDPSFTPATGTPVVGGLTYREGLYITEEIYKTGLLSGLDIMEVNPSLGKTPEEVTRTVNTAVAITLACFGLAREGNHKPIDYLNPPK
The experiment can be described thus: Human arginase inhibition assay (colorimetric urea detection), arginase 1. The class given is biochemical. To be noted: IC50 class, hydrochloride salts, 1 h at 37° C., pH 7.4, 10 mM L-arginine, 200 μM MnCl2, read-out: Activity Class (ARG I). The procedure:
(§1) The inhibitory activities of the compounds of the invention were assessed using recombinant human arginase 1 and 2. Both enzymes were biosynthesized using a prokaryotic expression system (E. coli) and purified by fast protein liquid chromatography (FPLC). The compounds were screened in 96-well plates at the total reaction volume of 100 μL. Briefly, recombinant enzymes were incubated with the tested compounds for 1 h at 37° C. in the reaction buffer (100 mM sodium phosphate buffer, 130 mM NaCl, 1 mg/mL BSA, pH 7.4) containing substrate (10 mM L-arginine hydrochloride) and cofactor (200 μM MnCl2). The assay is based on the detection of urea, which is generated during the conversion of L-arginine into L-ornithine catalyzed by ARG1 or ARG2. The colorimetrically detectable product was developed by adding a mixture of reagent A (4 mM oPA, 50 mM boric acid, 1 M sulfuric acid, 0.03% Brij-35) and reagent B (4 mM NED, 50 mM boric acid, 1 M sulfuric acid, 0.03% Brij-35) in equal proportions. The absorbance for each well was measured at 515 nm and the enzyme inhibition was calculated. The urea production in the absence of any tested compound was considered as maximal enzyme activity. The absorbance at the absence of arginase (background) was subtracted from all the values. Normalized values were analyzed using GraphPad Prism 7.0 software by plotting inhibition curves and determining the IC50 values.
(§2) The inhibitory activity toward humane arginase 1 of the hydrochloride salts of the exemplary compounds according to the invention is presented in Table 5.

In experiment [2] the target is T2, recombinant human arginase 2 (Homo sapiens, UniProt P78540).
T2 construct: made in house; host or cells: E. coli
T2 sequence (P78540 23-354): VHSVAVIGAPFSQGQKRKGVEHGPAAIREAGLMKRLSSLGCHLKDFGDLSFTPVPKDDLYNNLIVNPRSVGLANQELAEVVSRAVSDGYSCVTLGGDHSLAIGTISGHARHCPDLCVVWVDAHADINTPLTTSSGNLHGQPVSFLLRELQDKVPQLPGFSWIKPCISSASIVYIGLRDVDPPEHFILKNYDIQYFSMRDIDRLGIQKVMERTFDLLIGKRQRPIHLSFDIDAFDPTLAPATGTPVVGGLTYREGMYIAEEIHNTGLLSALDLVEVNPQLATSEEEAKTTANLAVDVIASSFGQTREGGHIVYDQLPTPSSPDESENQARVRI
The experiment can be described thus: Human arginase inhibition assay (colorimetric urea detection), arginase 2. To be noted: IC50 class, hydrochloride salts, 1 h at 37° C., pH 7.4, 10 mM L-arginine, 200 μM MnCl2, read-out: Activity Class (ARG II). The experiment is classed as biochemical. As for the experimental part: as §1, §2
The inhibitory activity toward humane arginase 2 of the hydrochloride salts of the selected exemplary compounds according to the invention is presented in Table 6.

Structures can show the parent of a compound that is named as a salt.

As for `NCCCC[C@H](N)C(=O)N1C[C@@H](CCB(O)O)C[C@](N)(C(=O)O)C1` [Example 7, (3R,5S)-1-(L-Lysyl)-3-amino-5-(2-boronoethyl)piperidine-3-carboxylic acid trihydrochloride], the IC50 lay in the range of 0.001 to 0.249 µM in experiment [1] and 0.5 to 0.999 µM in experiment [2].

Consider `C[C@H](N)C(=O)N1C[C@@H](CCB(O)O)C[C@](N)(C(=O)O)[C@@H]1C` [Example 30, (2S,3R,5S)-1-(L-alanyl)-3-amino-5-(2-boronoethyl)-2-methylpiperidine-3-carboxylic acid dihydrochloride], for which the IC50 was 0.001 to 0.249 µM in experiment [1] and 0.5 to 0.999 µM in experiment [2].

With `N=C(N)NCCC[C@H](N)C(=O)N1C[C@@H](CCB(O)O)C[C@](N)(C(=O)O)C1` [Example 20, (3R,5S)-1-(L-Arginyl)-3-amino-5-(2-boronoethyl)piperidine-3-carboxylic acid trihydrochloride], the IC50 in experiment [1] was in the range of 0.001 to 0.249 µM; in experiment [2] it was 0.25 to 0.499 µM.

For `NCC(=O)N1C[C@@H](CCB(O)O)C[C@](N)(C(=O)O)C1` [Example 3, (3R,5S)-3-Amino-5-(2-boronoethyl)-1-glycylpiperidine-3-carboxylic acid dihydrochloride], the IC50 in experiment [1] is 0.001 to 0.249 µM; in experiment [2], 0.5 to 0.999 µM.

For the compound `N[C@@H](Cc1c[nH]cn1)C(=O)N1C[C@@H](CCB(O)O)C[C@](N)(C(=O)O)C1` [Example 13, (3R,5S)-1-(L-Histidyl)-3-amino-5-(2-boronoethyl)piperidine-3-carboxylic acid trihydrochloride], the IC50 in experiment [1] was in the range of 0.001 to 0.249 µM; in experiment [2] it was 0.5 to 0.999 µM.

`C[C@H](N)C(=O)N1C[C@@H](CCB(O)O)C[C@](N)(C(=O)O)C1` [Example 1, (3R,5S)-1-(L-Alanyl)-3-amino-5-(2-boronoethyl)piperidine-3-carboxylic acid dihydrochloride]: the IC50 fell in the range of 0.25 to 0.499 µM in experiment [1] and 0.5 to 0.999 µM in experiment [2].

As for `N[C@@H](CO)C(=O)N1C[C@@H](CCB(O)O)C[C@](N)(C(=O)O)C1` [Example 6, (3R,5S)-1-(L-Seryl)-3-amino-5-(2-boronoethyl)piperidine-3-carboxylic acid dihydrochloride], the values for the IC50 in experiment [1] and in experiment [2] were 0.001 to 0.249 µM and 0.5 to 0.999 µM, respectively.

Source of the values: patent publication US10851099B2, “Dipeptide piperidine derivatives” (OncoArendi Therapeutics S.A., priority 2018, dated 2020).
